# Results from patent EP0986299B1, “PLANT TRANSFORMATION METHODS” (Syngenta Participations AG, priority 1997, dated 1998).
# Like-named read-outs stand apart in the source and are kept apart here.
# Legend:
# cell line HE/89 = assay: DNA fragmentation (DNA ladders) after Agrobacterium exposure, sensitivity to added agents; format: cell-based; conditions: maize cells exposed to Agrobacterium, agent added
# Procedure: In order to determine the mechanism of cell death induced by Agrobacterium in maize tissues, genomic DNA is extracted from plant suspension cells harvested 24 or 48 hours after inoculation with Agrobacterium. Exposure to Agrobacterium causes DNA fragmentation in both maize lines, with a pattern characteristic of internucleosomal fragmentation, which is considered an early hallmark of programmed cell death. […] Furthermore, maize cells undergoing programmed cell death could not induce cell death of fresh maize embryogenic tissues.
# Further evidence for Agrobacterium inducing DNA fragmentation is obtained by investigating the sensitivity of the process to Zn^2+ and Ca^2+. […] These characteristics are fully consistent with the effect of these divalent cations on the endogenous endonucleases responsible for DNA cleavage during apoptosis in animal system. The intensity of the ladder also is decreased by addition of cycloheximide, evidence that the process requires de novo gene expression. […] Fragmentation of DNA during apoptosis is also detected in situ by reagents that react with the exposed hydroxyls on the nucleosome units. 12 day old maize embryos from a proprietary elite line of Lancaster parentage are inoculated with LBA4404 and plated on DG4 medium supplemented with chloramben. Koziel, M.G., & al. 1993. Bio/Technology 11: 194-200. Apoptotic cells are detected by in situ staining with TACS-1 kit (Trevigen), which involves end labeling the DNA fragments by the klenow enzyme using dNTP conjugated to a detectable marker, giving a dark insoluble precipitate indicative of genomic fragmentation. Cullivier, O., Pirianov, G., Kleuser, B., Vanek, P.G., Coso, O.A., Gutking, J.S. and Spiegel, S. (1996) Nature 381, 800-803. Embryos are soaked in 3.7% formadehyde solution and processed as described by the manufacturer. To detect genomic DNA cleavage in situ, fixed embryos are treated with the TACS-1 kit. Fixed cross-sections are first treated with proteinase K for 5 min at room temperature and then dipped for 5 min into 2% hydrogen peroxide to remove endogenous peroxidase. […]
# maize embryos = conditions: for Score (Callus initiation): transfer 2DG4 + AgNO3 +Cef, two weeks
# Procedure: Immature embryos (1.2 to 2.2 mm in length) are aseptically excised 14-15 days after pollination from surface-sterilized, greenhouse-grown ears and plated scutellum up on callus initiation medium, 2DG4 + 5 mg/l chloramben (2DG4-5Chl). 2DG4 medium is Duncan's medium modified to contain […] sucrose.
# Embryos with callus response: • Immature embryos are sterilized as described above and plated on callus initiation medium (2DG4-5Chl) and cultured therein for 1 to 7 days. The resulting tissue is used as samples for inoculation.
# (§1) Strain A. tumefaciens LBA4404 (pAL4404, pSB1) is used in these experiments. pAL4404 is a disarmed helper plasmid. pSB1 is a wide host range plasmid that contains a region of homology to pGIGUP and a 15.2 kb Kpnl fragment from the virulence region of pTiBo542 (Ishida et al., 1996; High efficiency transformation of maize (Zea mays L.) mediated by Agrobacterium tumefaciens, Nature Biotechnology 14, 745-750). The introduction of the plasmid pGlGUP by electroporation into LBA4404(pAL4404, pSB1) results in a cointegration of pGlGUP and pSB1. The T-DNA of this plasmid contains a plant expressible PAT gene driven by the ubiquitin promoter to provide resistance to phosphinothricin and a gene for GUS with an intron in the N-terminal codon of the coding sequence driven by the Gelvin promoter. This intron-GUS gene expresses GUS activity in the plant cell but not in Agrobacterium.
# (§2) Agrobacterium is grown for 3 days on YP medium (5g/l yeast extract, 10g/l peptone, 5g/l NaCl, 15 g/l agar, pH 6.8) supplemented with 50 mg/l spectinomycin and 10 mg/l tetracycline. Bacteria are collected with a loop and suspended in N6 liquid medium at a density ranging from 10^9 to 5 10^9cells/ml. Agrobacterium cells can also be collected from an overnight culture in YP medium and resuspended in N6 liquid medium.
# (§3) Maize tissues prepared as described above are inoculated with Agrobacterium. Maize tissues are soaked in the bacterial suspension for 5-10 min and then plated on medium with or without silver nitrate (1 to 10 mg/l). Tissues are also inoculated with a 5 µl drop 10^9 to 5x10^9cells/ml of an Agrobacterium suspension placed on the top of the tissue. After inoculation, maize tissues are cultured in the dark at 25°C with or without silver nitrate in the medium (1 to 10 mg/l). 2 or 3 days after inoculation, tissues are transferred on the same medium supplemented with cefotaxime (250 mg/l) with or without silver nitrate.
# tobacco leaf discs = conditions: silver nitrate during co-cultivation; LBA4404(GIGUP) 10^9 cells/ml
# maize type I callus = conditions: transfer 2DG4+ AgNO3 + Cef, 2 weeks
# Procedure: Embryos plated on callus initiation medium (2DG4 + 5 Chloramben) for 7 to 20 days give rise to callus. […] Resultant embryogenic callus are cut out of embryos and transferred to callus maintenance medium, 2DG4 + 0.5 mg/l (2,4-dichlorophenoxy) acetic acid (2,4-D) and used as samples for inoculation.
# Type I callus obtained by the method described above can be maintained on the maintenance medium (2DG4 + 2,4 D 0.5 mg/l) and subcultured every 2 weeks.
# as §1, §2, §3
smiles,measurement,setting,value
C[C@@H]1C[C@@H]([C@H](O)CC2CC(=O)NC(=O)C2)C(=O)[C@@H](C)C1 [cycloheximide],intensity of DNA ladders (genomic fragmentation),cell line HE/89,decreased
[Zn+2] [Zn^2+],intensity of DNA ladders (genomic fragmentation),cell line HE/89,markedly reduced genomic fragmentation
[Ca+2] [Ca^2+],intensity of DNA ladders (genomic fragmentation),cell line HE/89,increased the intensity of DNA ladders
CO/N=C(\C(=O)N[C@@H]1C(=O)N2C(C(=O)O)=C(COC(C)=O)CS[C@H]12)c1csc(N)n1 [cefotaxime],necrosis of maize tissue,HE/89,does not cause the maize tissue to become necrotic
"O=[N+]([O-])[O-].[Ag+] [AgNO3, silver nitrate]",embryos able to produce embryogenic calli,"maize embryos; embryos plated on medium containing silver nitrate, inoculated with Agrobacterium",About 50%
same,Score (Callus initiation),"maize embryos; no pretreatment, co-inoculation 2DG4 + AgNO3, LBA4404 (GIGUP) 10^9 cells/ml",55%
same,Score (Callus initiation),"maize embryos; no pretreatment, co-inoculation 2DG4, LBA4404 (GIGUP) 10^9 cells/ml",30%
same,Score (Callus initiation),"maize embryos; pretreatment 2DG4 (6 days) + 1 day on 2DG4 + AgNO3, co-inoculation 2DG4 + AgNO3",88%
same,Score (Callus initiation),"maize embryos; pretreatment 2DG4 (6 days), co-inoculation 2DG4 + AgNO3",65%
same,Score (Callus initiation),"maize embryos; pretreatment 2DG4 + AgNO3 (1 day), co-inoculation 2DG4 + AgNO3",43%
same,Score (Callus initiation),"maize embryos; pretreatment 2DG4 + AgNO3(4 days), co-inoculation 2DG4 + AgNO3",27%
same,GUS activity,tobacco leaf discs,No significant decrease
same,Score (Survival of tissues),"maize type I callus; 1/2 month old Type I callus, pretreatment 2DG4+AgNO3, co-inoculation 2DG4+AgNO3",95%
same,Score (Survival of tissues),"maize type I callus; 1/2 month old Type I callus, pretreatment 2DG4, co-inoculation 2DG4+AgNO3",75%
same,Score (Survival of tissues),"maize type I callus; 10 month-old Type I callus, pretreatment 2DG4+ AgNO3, co-inoculation 2DG4+ AgNO3",66%
same,Score (Survival of tissues),"maize type I callus; 10 month-old Type I callus, pretreatment 2DG4, co-inoculation 2DG4+ AgNO3",55%
